Assay results: patent US12590062B2, “PD-1/PD-L1 inhibitors” (Gilead Sciences, Inc., priority 2017, dated 2026)

Experiments:
PD-1/PD-L1 = PD-1/PD-L1 (Homo sapiens, UniProt Q9NZQ7); experiment: PD-1/PD-L1 biochemical protein-protein interaction assay (ALPHA); type: binding; conditions: 0.3 nM His tagged PD-L1, 2.5 nM biotinylated Fc-PD-1, 60 minutes at 25° C., read-out: IC50 PD-L1-PD-1 Alpha IC50-mono PD-L1-fcP-D1
Summary of the method: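 Bead proximity read-out: compound-driven loss of ALPHA signal between anti-His acceptor and streptavidin donor beads (20 μg/mL acceptor). Proteins: 0.3 nM His-PD-L1, 2.5 nM biotin-Fc-PD-1, final. 60 min, 25° C, Hepes pH 7.4 buffer. IC50 via four-parameter dose-response fit.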

PD-L1 = biological target: T1, PD-L1 (Homo sapiens, UniProt Q9NZQ7); experiment: PD-L1/PD-L1 dimerization biochemical protein-protein interaction assay (ALPHA); type: binding; conditions: compound-induced PD-L1 dimerization, head prints '1 nM' (0.5 nM His-tagged PD-L1 and 0.5 nM FLAG-tagged PD-L1), read-out: AC50 PDL1 Dimer Alpha 1 nM
T1 construct: determine if they can specifically dimerize the extracellular domains of PD-L1
T1 sequence (Q9NZQ7 19-238 limits assumed): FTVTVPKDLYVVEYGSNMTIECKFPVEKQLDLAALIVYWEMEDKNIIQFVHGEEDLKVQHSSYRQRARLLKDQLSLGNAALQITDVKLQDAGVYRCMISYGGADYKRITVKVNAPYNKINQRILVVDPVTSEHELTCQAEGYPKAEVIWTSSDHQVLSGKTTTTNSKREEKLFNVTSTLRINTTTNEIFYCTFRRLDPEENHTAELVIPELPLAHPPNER
T1 sequence (Q9NZQ7 19-238 limits assumed): as above
Procedure: PD-L1/PD-L1 Dimerization Biochemical Protein-Protein Interaction Assay:
Compounds were tested in biochemical protein-protein interaction assays to determine if they can specifically dimerize the extracellular domains of PD-L1. Dimerization of the proteins (His-tagged PD-L1 and FLAG-tagged PD-L1) is measured using a bead based Amplified Luminescent Proximity Homogeneous Assay (ALPHA) platform. […] Assays are performed in 25 mM Hepes (pH 7.4), 150 mM NaCl, 3.4 mM EDTA, 0.005% Tween 20, and 0.01% BSA. Final protein concentration in the assays were 0.5 nM (His tagged PD-L) and 0.5 nM (FLAG tagged PD-L1). After an assay reaction time of 2 hours at 25° C., 20 μg/mL (final assay concentration) ALPHA assay acceptor beads (anti-His coated) were added and incubated for 60 minutes at 25° C. Binding was measured following a final 60 minute incubation with 40 μg/mL (final assay concentration) ALPHA assay donor beads (anti-FLAG coated). AC50 values were calculated from the fit of the dose-response curves to a four-parameter equation (Table 3).

PD-1/PD-L1 interaction = biological target: T2, PD-1/PD-L1 interaction (Homo sapiens, UniProt Q9NZQ7); experiment: PD-1/PD-L1 NFAT reporter co-culture assay; type: cell-based; conditions: Jurkat PD-1 NFAT-luciferase cells co-cultured with aAPC-PD-L1 CHO cells, 6 hrs at 37° C.; read-out: EC50 NFAT Luciferase
T2 construct: expressed in transfected cells; host or cells: CHO cells (aAPC-PD-L1) co-cultured with Jurkat cells overexpressing PD-1 and an NFAT-luciferase reporter
T2 sequence (Q9NZQ7 19-290): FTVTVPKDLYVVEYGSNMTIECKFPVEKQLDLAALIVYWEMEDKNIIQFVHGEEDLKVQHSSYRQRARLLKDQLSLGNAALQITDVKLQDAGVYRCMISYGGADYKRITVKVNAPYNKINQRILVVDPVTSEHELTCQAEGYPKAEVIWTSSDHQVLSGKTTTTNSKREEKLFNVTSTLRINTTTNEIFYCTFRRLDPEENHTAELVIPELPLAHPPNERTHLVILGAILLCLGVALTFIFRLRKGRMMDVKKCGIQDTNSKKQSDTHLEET
Summary of the method: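 First, CHO cells displaying anti-CD3 antibody and PD-L1 were plated overnight. Next, compound-treated PD-1 Jurkat NFAT-luciferase reporter cells in 2% FBS RPMI were added for 6 h at 37 °C. Finally, ONE-Glo luminescence was read and EC50 values fitted with a four-parameter equation.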

Sequence of PD-1/PD-L1 (Q9NZQ7 19-238 limits assumed): as the sequence (Q9NZQ7 19-238 limits assumed) above

| IC50 (PD-1/PD-L1) | AC50 (PD-L1) | EC50 (PD-1/PD-L1 interaction) | Structure (SMILES) |
| --- | --- | --- | --- |
| 2.84 nM | 206 nM | 175 nM | COc1nc(O[C@H]2CCc3c(-c4cccc(-c5ccc(CNC[C@@H]6CCC(=O)N6)c(Cl)c5)c4Cl)cccc32)c(Br)cc1CNC[C@@H]1CCC(=O)N1 [Example 791] |
| 0.074 nM | 78 nM | 210 nM | Cc1c(COc2cc(OCc3cncc(C#N)c3)c(CN[C@@](C)(CO)C(=O)O)cc2Cl)cccc1-c1cccc(-c2ccc3c(c2)CCC3N2CC(C)C2)c1C (stereo partly drawn) [Example 371, (2S)-2-((5-chloro-2-((5-cyanopyridin-3-yl)methoxy)-4-((2,2′-dimethyl-3′-(1-(3-methylazetidin-1-yl)-2,3-dihydro-1H-inden-5-yl)-[1,1′-biphenyl]-3-yl)methoxy)benzyl)amino)-3-hydroxy-2-methylpropanoic acid] |
| 0.051 nM | 91.3 nM | 152 nM | Cc1c(COc2cc(OCc3cncc(C#N)c3)c(CN[C@@](C)(CO)C(=O)O)cc2Cl)cccc1-c1cccc(-c2ccc(OCCN[C@@](C)(CO)C(=O)O)cc2)c1C [Example 313, (S)-2-((4-((4″-(2-(((S)-2-carboxy-1-hydroxypropan-2-yl)amino)ethoxy)-2,2′-dimethyl-[1,1′:3′,1″-terphenyl]-3-yl)methoxy)-5-chloro-2-((5-cyanopyridin-3-yl)methoxy)benzyl)amino)-3-hydroxy-2-methylpropanoic acid] |
| 0.697 nM | 328 nM | 930 nM | Cc1c(COc2cc(OCc3cncc(C#N)c3)c(CNC[C@@H](O)CC(=O)O)cc2Cl)cccc1-c1cccc(-c2ccc3c(c2)CC(N2CC(C)(O)C2)C3)c1C (stereo partly shown) [Example 442] |
| 0.064 nM | 28.1 nM | 25 nM | COc1nc(-c2cccc(-c3cccc4c3CC[C@@H]4Oc3nc(OC)c(CN4CC[C@@H](C(=O)O)C4)cc3Cl)c2Cl)ccc1CNC[C@@H]1CCC(=O)N1 [Example 769] |
| 0.205 nM | 108 nM | 138 nM | Cc1c(COc2cc(OCc3cncc(C#N)c3)c(CNC[C@@H](O)CC(=O)O)cc2Cl)cccc1-c1cccc(-c2ccc(CN(C)C)cc2)c1Br [Example 484] |
| 0.064 nM | 17 nM | 1890 nM | CC(C)(NCc1cc(Cl)c(O[C@H]2CCc3c(-c4cccc(-c5ccc(OCCN6CC[C@@H](O)C6)cc5)c4Cl)cccc32)nc1OCc1cncc(C#N)c1)C(=O)O [Example 667] |
| 0.064 nM | 37.9 nM | 105 nM | Cc1c(-c2nc3ccc(CNC[C@@H](O)CC(=O)O)cc3s2)cccc1-c1cccc2c1CC[C@@H]2Oc1nc(OCc2cncc(C#N)c2)c(CNC[C@@H](O)CC(=O)O)cc1Cl [Example 396, (S)-4-(((2-(3-((S)-1-((5-((((S)-3-carboxy-2-hydroxypropyl)amino)methyl)-3-chloro-6-((5-cyanopyridin-3-yl)methoxy)pyridin-2-yl)oxy)-2,3-dihydro-1H-inden-4-yl)-2-methylphenyl)benzo[d]thiazol-6-yl)methyl)amino)-3-hydroxybutanoic acid] |
| 0.11 nM | 39.4 nM | 86 nM | C[C@@](CO)(NCc1cc(Cl)c(OCc2cccc(-c3cccc(-c4ccc(OCCN5CC6(CCC(=O)N6)C5)cc4)c3Cl)c2Cl)nc1OCc1cc(C#N)cc(C#N)c1)C(=O)O [Example 566] |
| 0.355 nM | 54.6 nM | 177 nM | COc1nc(OCc2cccc(-c3cccc(-c4ccc5c(c4)C[C@@H](N)C5)c3Cl)c2Cl)c(Br)cc1CN[C@](C)(CO)C(=O)O [Example 549] |
| 0.222 nM | 129 nM | 120 nM | COc1nc(-c2cccc(-c3cccc4c3CC[C@@H]4Oc3nc(OC)c(CN4CC5(CCC(=O)N5)C4)cc3Cl)c2Cl)ccc1CN1CC2(CCC(=O)N2)C1 [Example 733] |
| 0.064 nM | 45 nM | 130 nM | COc1nc(O[C@H]2CCc3c(-c4cccc(-c5ccc(CN6CC7(C6)CN(C(C)=O)C7)cc5)c4Cl)cccc32)c(Cl)cc1CN1CC[C@@H](C(=O)O)C1 [Example 771] |
|  | 728 nM | 1100 nM | Cc1c(COc2cc(OCc3cncc(C#N)c3)c(CNC[C@@H](O)CC(=O)O)cc2Cl)cccc1-c1cccc(-c2ccc3cc(CNC[C@@H](O)CC(=O)O)ccc3n2)c1C [Example 398, (S)-4-(((2-(3′-((4-((((S)-3-carboxy-2-hydroxypropyl)amino)methyl)-2-chloro-5-((5-cyanopyridin-3-yl)methoxy)phenoxy)methyl)-2,2′-dimethyl-[1,1′-biphenyl]-3-yl)quinolin-6-yl)methyl)amino)-3-hydroxybutanoic acid] |
|  | ≥ 10000 nM | 60 nM | COc1nc(OCc2cccc(-c3cccc(COc4nc(OC)c(CNC[C@H](O)CC(=O)O)cc4Br)c3Cl)c2Cl)c(Br)cc1CNC[C@H](O)CC(=O)O [Example 191, (3R,3′R)-4,4′-((((((2,2′-Dichloro-[1,1′-biphenyl]-3,3′-diyl)bis(methylene))bis(oxy))bis(5-bromo-2-methoxypyridine-6,3-diyl))bis(methylene))bis(azanediyl))bis(3-hydroxybutanoic acid)] |
|  | 423 nM | 145 nM | Cc1c(COc2cc(OCc3cc(C#N)ccn3)c(CNC[C@@H](O)CC(=O)O)cc2Cl)cccc1-c1cccc(COc2cc(OCc3cc(C#N)ccn3)c(CNC[C@@H](O)CC(=O)O)cc2Cl)c1C [Example 225, (3S,3′S)-4,4′-((((((2,2′-dimethyl-[1,1′-biphenyl]-3,3′-diyl)bis(methylene))bis(oxy))bis(5-chloro-2-((4-cyanopyridin-2-yl)methoxy)-4,1-phenylene))bis(methylene))bis(azanediyl))bis(3-hydroxybutanoic acid)] |
|  | 289 nM | 319 nM | Cc1c(COc2cc(OCc3cncc(C#N)c3)c(CNC[C@@H](O)CC(=O)O)cc2Cl)cccc1-c1cccc(-c2ccc3sc(CNC[C@@H](O)CC(=O)O)nc3c2)c1C [Example 399, (S)-4-(((5-(3′-((4-((((S)-3-carboxy-2-hydroxypropyl)amino)methyl)-2-chloro-5-((5-cyanopyridin-3-yl)methoxy)phenoxy)methyl)-2,2′-dimethyl-[1,1′-biphenyl]-3-yl)benzo[d]thiazol-2-yl)methyl)amino)-3-hydroxybutanoic acid] |
|  | 132 nM | 99 nM | N#Cc1cncc(COc2nc(OCc3cccc(-c4cccc(COc5nc(OCc6cncc(C#N)c6)c(CNC[C@@H](O)CC(=O)O)cc5Br)c4Cl)c3Cl)c(Br)cc2CNC[C@@H](O)CC(=O)O)c1 [Example 193, (3S,3′S)-4,4′-((((((2,2′-Dichloro-[1,1′-biphenyl]-3,3′-diyl)bis(methylene))bis(oxy))bis(5-bromo-2-((5-cyanopyridin-3-yl)methoxy)pyridine-6,3-diyl))bis(methylene))bis(azanediyl))bis(3-hydroxybutanoic acid)] |
|  | 83.1 nM | 114 nM | Cc1c(COc2cc(OCc3cncc(C#N)c3)c(CNC[C@@H](O)CC(=O)O)cc2Cl)cccc1-c1cccc(-c2ccc3oc(CNC[C@@H](O)CC(=O)O)cc3c2)c1C [Example 210, (S)-4-(((5-(3′-((4-((((S)-3-carboxy-2-hydroxypropyl)amino)methyl)-2-chloro-5-((5-cyanopyridin-3-yl)methoxy)phenoxy)methyl)-2,2′-dimethyl-[1,1′-biphenyl]-3-yl)benzofuran-2-yl)methyl)amino)-3-hydroxybutanoic acid] |
|  | 223 nM | 151 nM | N#Cc1cncc(COc2nc(OCc3cccc(-c4cccc(COc5nc(OCc6cncc(C#N)c6)c(CNC[C@H](O)CC(=O)O)cc5Br)c4Cl)c3Cl)c(Br)cc2CNC[C@H](O)CC(=O)O)c1 [Example 196, (3R,3′R)-4,4′-((((((2,2′-Dichloro-[1,1′-biphenyl]-3,3′-diyl)bis(methylene))bis(oxy))bis(5-bromo-2-((5-cyanopyridin-3-yl)methoxy)pyridine-6,3-diyl))bis(methylene))bis(azanediyl))bis(3-hydroxybutanoic acid)] |
|  | 206 nM | 201 nM | Cc1c(COc2nc(OCCCC#N)c(CNC[C@@H](O)CC(=O)O)cc2Br)cccc1-c1cccc(COc2nc(OCCCC#N)c(CNC[C@@H](O)CC(=O)O)cc2Br)c1C [Example 144, (3S,3′S)-4,4′-((((((2,2′-dimethyl-[1,1′-biphenyl]-3,3′-diyl)bis(methylene))bis(oxy))bis(5-bromo-2-(3-cyanopropoxy)pyridine-6,3-diyl))bis(methylene))bis(azanediyl))bis(3-hydroxybutanoic acid)] |
